The text below walks through data of patent publication US8735414B2 (priority 2009, dated 2014).

Data set [1] deals with bicistronic HCV replicon (replicon RNA, GenBank Accession No. AJ242654). The data set is described as follows: HCV Replicon Assay. It counts as cell-based. The note with it: Hepatitis C virus, 72 h, read-out: Replicon IC50. (In general: Replicon systems follow genome replication, usually without infectious particles.)

Each structure is given as a SMILES string.

As a reminder, the IC50 is the concentration at which inhibition is half-maximal. What is called melting point is the temperature of the solid-liquid transition. For `CC(C)Cn1c(-c2ccc(S(=O)(=O)N[C@@H](C)C(F)(F)F)cn2)c(C#N)c2cc(F)c(OC(F)F)cc21` [compound 937, 6-[3-cyano-6-(difluoromethoxy)-5-fluoro-1-(2-methylpropyl)-1H-indol-2-yl]-N-[(2S)-1,1,1-trifluoropropan-2-yl]pyridine-3-sulfonamide], the melting point fell in the range of 130 to 134 °C. For the same compound, the IC50 in data set [1] was under 500 nM.
For `C[C@H](NS(=O)(=O)c1ccc(-c2c(C(N)=O)c3cc(Cl)ccc3n2C2CCC2)nc1)C(F)(F)F` [compound 996, 5-chloro-1-cyclobutyl-2-(5-{[(2S)-1,1,1-trifluoropropan-2-yl]sulfamoyl}pyridin-2-yl)-1H-indole-3-carboxamide], the melting point fell in the range of 244 to 245 °C. The IC50 in data set [1] is under 500 nM.
`COc1ccc2c(c1)c(C#N)c(-c1ncc(S(=O)(=O)NC(CF)CF)cn1)n2C1CCC1` [compound 551, 2-(3-cyano-1-cyclobutyl-5-methoxy-1H-indol-2-yl)-N-(1,3-difluoropropan-2-yl)pyrimidine-5-sulfonamide] had a melting point of 217 to 219 °C. Besides, the IC50 in data set [1] was under 500 nM.
The corresponding values for `Cc1cc2c(C#N)c(-c3ccc(S(=O)(=O)N[C@@H](C)C(F)(F)F)cn3)n(-c3ncc(F)cn3)c2cc1F` [compound 949, 6-[3-cyano-6-fluoro-1-(5-fluoropyrimidin-2-yl)-5-methyl-1H-indol-2-yl]-N-[(2S)-1,1,1-trifluoropropan-2-yl]pyridine-3-sulfonamide] are 226 to 231 °C and under 500 nM.
For `N#Cc1c(-c2ccc(S(=O)(=O)NC(CF)CF)cn2)n(C2CCCCC2)c2cc(F)ccc12` [compound 234, 6-(3-cyano-1-cyclohexyl-6-fluoro-1H-indol-2-yl)-N-(1,3-difluoropropan-2-yl)pyridine-3-sulfonamide] the same measures were 193 to 199 °C and under 500 nM.
The corresponding values for `Cc1cc2c(C#N)c(-c3ccc(S(=O)(=O)N[C@@H](C)C(F)(F)F)cn3)n(C3CCCC3)c2cc1F` [compound 483, 6-(3-cyano-1-cyclopentyl-6-fluoro-5-methyl-1H-indol-2-yl)-N-[(2S)-1,1,1-trifluoropropan-2-yl]pyridine-3-sulfonamide] are 219 to 223 °C and under 500 nM.
The compound `N#Cc1c(-c2ccc(S(=O)(=O)NC(CF)CF)cn2)n(C2CCCC2)c2ccc(F)cc12` [compound 38, 6-(3-cyano-1-cyclopentyl-5-fluoro-1H-indol-2-yl)-N-(1,3-difluoropropan-2-yl)pyridine-3-sulfonamide] came in with a melting point of 171 to 172 °C. Moreover, in data set [1], the IC50 is under 500 nM.
The corresponding values for `N#Cc1c(-c2ccc(NS(=O)(=O)C3CC3)cn2)n(CC2CC2)c2cc(OC(F)F)ccc12` [compound 270, N-{6-[3-cyano-1-(cyclopropylmethyl)-6-(difluoromethoxy)-1H-indol-2-yl]pyridin-3-yl}cyclopropanesulfonamide] are 156 to 158 °C and 2000 to 5000 nM.
The compound `CCc1ccc2c(C#N)c(-c3ccc(S(=O)(=O)NC(C)C)cn3)n(C(C)C)c2c1` [compound 75, 6-[3-cyano-6-ethyl-1-(propan-2-yl)-1H-indol-2-yl]-N-(propan-2-yl)pyridine-3-sulfonamide] came in with a melting point of 185 to 186 °C. In data set [1], the IC50 is under 500 nM.
`CCc1cc2c(cc1F)c(C#N)c(-c1ccc(S(=O)(=O)N[C@@H](C)C(F)(F)F)cn1)n2-c1ccc(F)c(Cl)c1` [compound 1062, 6-[1-(3-chloro-4-fluorophenyl)-3-cyano-6-ethyl-5-fluoro-1H-indol-2-yl]-N-[(2S)-1,1,1-trifluoropropan-2-yl]pyridine-3-sulfonamide] showed a melting point of 228 to 232 °C. Further, the IC50 in data set [1] was under 500 nM.
For `CC(C)NS(=O)(=O)c1cnc(-c2c(C#N)c3cc(F)ccc3n2C(C)C)nc1` [compound 123, 2-[3-cyano-5-fluoro-1-(propan-2-yl)-1H-indol-2-yl]-N-(propan-2-yl)pyrimidine-5-sulfonamide], the melting point fell in the range of 192 to 197 °C. Also, the IC50 in data set [1] was under 500 nM.
For `Cc1cc2c(C#N)c(-c3ncc(S(=O)(=O)NC(C)C)cn3)n(C3CCCC3)c2cc1Cl` [compound 523, 2-(6-chloro-3-cyano-1-cyclopentyl-5-methyl-1H-indol-2-yl)-N-(propan-2-yl)pyrimidine-5-sulfonamide] the same measures were 216 to 216.5 °C and 500 to 2000 nM.
Take `C[C@H](NS(=O)(=O)c1ccc(-c2c(C#N)c3cc(F)ccc3n2CC2CC2)nc1)C(F)(F)F` [compound 436, 6-[3-cyano-1-(cyclopropylmethyl)-5-fluoro-1H-indol-2-yl]-N-[(2S)-1,1,1-trifluoropropan-2-yl]pyridine-3-sulfonamide]: the melting point was 165 to 167 °C. For the same compound, the IC50 in data set [1] was under 500 nM.
For `Cc1ccc2c(c1)c(C#N)c(-c1ncc(S(=O)(=O)NC(CF)CF)cn1)n2C1CCCC1` [compound 160, 2-(3-cyano-1-cyclopentyl-5-methyl-1H-indol-2-yl)-N-(1,3-difluoropropan-2-yl)pyrimidine-5-sulfonamide] the same measures were 202 to 207 °C and under 500 nM.
Regarding `C[C@H](NS(=O)(=O)c1ccc(-c2c(C#N)c3cc(F)ccc3n2-c2ncccn2)nc1)C(F)(F)F` [compound 601, 6-[3-cyano-5-fluoro-1-(pyrimidin-2-yl)-1H-indol-2-yl]-N-[(2S)-1,1,1-trifluoropropan-2-yl]pyridine-3-sulfonamide], the melting point is 201 to 203 °C. Also, the IC50 in data set [1] is under 500 nM.
With `Cc1cc2c(cc1F)c(C(N)=O)c(-c1ccc(S(=O)(=O)N[C@@H](C)C(F)(F)F)cn1)n2C1CCOCC1` [compound 769, 5-fluoro-6-methyl-1-(tetrahydro-2H-pyran-4-yl)-2-(5-{[(2S)-1,1,1-trifluoropropan-2-yl]sulfamoyl}pyridin-2-yl)-1H-indole-3-carboxamide], the melting point was 261 to 264 °C. For the same compound, the IC50 in data set [1] is under 500 nM.
The corresponding values for `Cc1cc2c(cc1F)c(C#N)c(-c1ccc(S(=O)(=O)NC(C)(C)C)cn1)n2-c1ccccc1` [compound 1108, N-tert-butyl-6-(3-cyano-5-fluoro-6-methyl-1-phenyl-1H-indol-2-yl)pyridine-3-sulfonamide] are 200.6 to 202.4 °C and under 500 nM.
The corresponding values for `Cc1cc2c(cc1F)c(C(N)=O)c(-c1ccc(S(=O)(=O)NC(C)(C)C)cn1)n2C1CCC1` [compound 800, 2-[5-(tert-butylsulfamoyl)pyridin-2-yl]-1-cyclobutyl-5-fluoro-6-methyl-1H-indole-3-carboxamide] are 189 to 193 °C and under 500 nM.
Consider `Cc1ccc2c(C#N)c(-c3ccc(S(=O)(=O)N[C@@H](C)C4CC4)cn3)n(C3CCC3)c2c1` [compound 238, 6-(3-cyano-1-cyclobutyl-6-methyl-1H-indol-2-yl)-N-[(1S)-1-cyclopropylethyl]pyridine-3-sulfonamide], for which the melting point is 181 to 187 °C. The IC50 in data set [1] is under 500 nM.
For `CC(C)n1c(-c2ncc(S(=O)(=O)NC(CF)CF)cn2)c(C#N)c2ccc(F)cc21` [compound 165, 2-[3-cyano-6-fluoro-1-(propan-2-yl)-1H-indol-2-yl]-N-(1,3-difluoropropan-2-yl)pyrimidine-5-sulfonamide] the same measures were 149 to 150 °C and 500 to 2000 nM.
The corresponding values for `Cc1cc2c(C#N)c(-c3ccc(S(=O)(=O)N[C@@H](C)C(F)(F)F)cn3)n(-c3ncccn3)c2cc1F` [compound 901, 6-[3-cyano-6-fluoro-5-methyl-1-(pyrimidin-2-yl)-1H-indol-2-yl]-N-[(2S)-1,1,1-trifluoropropan-2-yl]pyridine-3-sulfonamide] are 125 to 130 °C and under 500 nM.
For `CCc1cc2c(cc1F)c(C(N)=O)c(-c1ccc(S(=O)(=O)N[C@@H](C)C(F)(F)F)cn1)n2-c1ccc(F)cn1` [compound 981, 6-ethyl-5-fluoro-1-(5-fluoropyridin-2-yl)-2-(5-{[(2S)-1,1,1-trifluoropropan-2-yl]sulfamoyl}pyridin-2-yl)-1H-indole-3-carboxamide] the same measures were 200 to 204 °C and under 500 nM.
Take `C[C@H](NS(=O)(=O)c1ccc(-c2c(C#N)c3ccc(C#N)cc3n2C2CCC2)nc1)C(F)(F)F` [compound 467, 6-(3,6-dicyano-1-cyclobutyl-1H-indol-2-yl)-N-[(2S)-1,1,1-trifluoropropan-2-yl]pyridine-3-sulfonamide]: the melting point was 223 to 225 °C. In addition, the IC50 in data set [1] is under 500 nM.
Turning to `N#Cc1ccc2c(C#N)c(-c3ccc(S(=O)(=O)NC(CF)CF)cn3)n(CC3CC3)c2c1` [compound 347, 6-[3,6-dicyano-1-(cyclopropylmethyl)-1H-indol-2-yl]-N-(1,3-difluoropropan-2-yl)pyridine-3-sulfonamide], the melting point was in the range of 199 to 201 °C. In addition, the IC50 in data set [1] was in the range of 500 to 2000 nM.
In turn, `N#Cc1c(-c2ccc(S(=O)(=O)NC3(C(F)(F)F)CC3)cn2)n(-c2ccc(F)cc2)c2cc(OC(F)F)ccc12` [compound 664, 6-[3-cyano-6-(difluoromethoxy)-1-(4-fluorophenyl)-1H-indol-2-yl]-N-[1-(trifluoromethyl)cyclopropyl]pyridine-3-sulfonamide] displayed a melting point of 195 to 198 °C. In data set [1], the half-inhibitory concentration (IC50) was under 500 nM.
In turn, `Cc1ccc2c(c1)c(C(N)=O)c(-c1ccc(S(=O)(=O)N[C@@H](C)C(F)(F)F)cn1)n2-c1cnccn1` [compound 916, 5-methyl-1-(pyrazin-2-yl)-2-(5-{[(2S)-1,1,1-trifluoropropan-2-yl]sulfamoyl}pyridin-2-yl)-1H-indole-3-carboxamide] came in with a melting point of 240 to 245 °C. Moreover, the IC50 in data set [1] is under 500 nM.
Compound `Cc1ccc2c(C#N)c(-c3ccc(S(=O)(=O)NC(C)(C)C(F)(F)F)cn3)n(-c3ccccn3)c2c1` [compound 686, 6-[3-cyano-6-methyl-1-(pyridin-2-yl)-1H-indol-2-yl]-N-(1,1,1-trifluoro-2-methylpropan-2-yl)pyridine-3-sulfonamide] came in with a melting point of 208 to 209 °C. In data set [1], the IC50 is under 500 nM.
